One test has as its system CD4+ T cell. In words: Inhibition of CD4+ T cell proliferation (CFSE, flow cytometry, anti-CD3/anti-CD28 stimulation). The class given is cell-based. The settings on record: Homo sapiens; 10 μM BTP2 control; anti-CD3 and anti-CD28 stimulated CD4+ T cell; 72 hours; read-out: Inhibition rate on T cell proliferation (%). The protocol:
In order to determine the anti-immunological activity of inventive extract, following inhibition test of proliferation of T cell isolated from human blood was performed according to the procedure disclosed in the literature (J Immunol Jul. 15, 2002, 169 (2) 802-808).
In order to evaluate the anti-immunological activity of inventive extract, PBMC(peripheral blood mononuclear cell) and T cell which had been used in the various immunological analysis, were prepared from human blood using Fiicoll (GE17-5442-02, GE Healthcare) according to the previous literature (BIOPRESERVATION AND BIOBANKING, Volume 14, Number 5, 2016).
CD4+ T cell was carefully isolated from the isolated PBMC using by T cell isolation kit (130-096-533, Miltenyi biotec.) according to the manufacture's manual instruction.
The anti-immunological effect on T cell was evaluated by the inhibition effect on the proliferation of CD4+ T cell. […]
The T cell treated with test sample was incubated at 37° C. for 72 hours in 5% CO2 incubator (MCO-18AC, Panasonic) and then the cell was collected to be analyzed using Flow cytometry (BD LSRFortessa, BD Biosciences).
Background: A flow cytometer gives signals particle by particle.

In test [1] the test system is IL-2 release in Jurkat T cell. In words: Inhibition of IL-2 release in Jurkat T cell (ELISA, anti-CD3/anti-CD28 stimulation). The class given is cell-based. The note with it: Homo sapiens; 10 μM BTP2 control; anti-CD3 and anti-CD28 stimulated Jurkat T cell; 72 hours; read-out: Inhibition rate on IL-2 release (%). As for the experimental part: In order to determine the anti-immunological activity of inventive extract, following inhibition test of cytokine release in Jukrat T cell was performed according to the procedure disclosed in the literature (ARTHRITIS & RHEUMATISM Vol. 52, No. 9, September 2005, pp 2730-2739).
ELISA (Enzyme-linked immunosorbent assay) was performed to determine the release of IL-2 in Jukrat T cell.
Jukrat T cell (TIB-152, American Type Culture Collection(ATCC)) was inoculated into 96 well plates (2×10^5 cells/well) and stimulated with anti-CD3 and anti-CD 28.
In order to determine the inhibition effect on the IL-2 release of T cell of inventive extract, the test samples, i.e., the extract disclosed in Comparative Examples and Examples, were inoculated into the well plate to be 100 μg/mL with the stimuli of anti-CD3 and anti-CD 28.
10 μM BTP2([N-{4-[3,5-bis(Trifluoromethyl)-1H-pyrazol-1-yl]phenyl}-4-methyl-1,2,3-thiadiazole-5-carboxamide], 203890-M, Calbiochem) was used as a control group. […]
The release of cytokines was analyzed by IL-2 specifically reacting ELISA kit (BGK60568, Peprotech Inc. NJ, USA) and the content of IL-2 was determined according to the instruction manual of manufacture.
A general note: In an ELISA, binding on a coated surface is turned into a signal by an enzyme label.

For `Cc1nnsc1C(=O)Nc1ccc(-n2nc(C(F)(F)F)cc2C(F)(F)F)cc1` [BTP2, N-{4-[3,5-bis(Trifluoromethyl)-1H-pyrazol-1-yl]phenyl}-4-methyl-1,2,3-thiadiazole-5-carboxamide], the inhibition at 10 µM in the test on CD4+ T cell was found to be 98.84 ± 0.0006%; in test [1], 90.3 ± 0.552%.

These data come from US20230381261A1, “A Purified Extract Isolated from Agrimonia Coreana Nakai Containing Abundant Amount of Active Ingredient, the Preparation Thereof, the Composition Comprising the Same as an Active Ingredient for Preventing or Treating Inflammation, Allergy and Atopic Dermatitis and the Use Thereof” (priority 2020, published 2023).
